Ends that are not written are not given here. * marks the point of attachment. Octanoyl = CCCCCCCC(=O)*

Assay [1] concerns pericytes coverage of capillaries. Kind of assay: Pericyte coverage of isolated capillaries after ghrelin administration. Type of assay: in vivo, mouse. Conditions: 3×Tg-AD mice aged 9 months; ghrelin s.c. per day every 2 days for 2 weeks vs vehicle (saline); P<0.001. An excerpt: (§1) Triple transgenic mice, 3×Tg-AD, containing three mutations ([…], APP Swedish and MAPT P301L), are widely used as an animal model of FAD. Age and gender-matched B6129SF2/J strain were used as the wild type (WT) control. Mice were obtained from the Jackson Laboratory and bred in our research institute's animal facility. Mice were housed in plastic cages on a 12 hr/12 hr light/dark cycle with ad libitum access to water and standard rodent diet. Animal usage was approved by California Medical Innovations Institute (CalMI2) Institutional Animal Care and Use Committee (IACUC). The genotyping was conducted in CalMI2 animal facilities at the age of 21 days by tail DNA extraction according to our previous protocol and the online information supplied by the vendor. […]
(§2) The isolated microvessel fragments were smeared onto Superfrost Plus pre-cleaned glass microscope slides and fixed using ICC Fixation Buffer (BD Pharmingen) for 15 min at room temperature (RT). […] For coverage analysis, the percentage of PDGFRβ-positive pericyte area covering lectin-positive capillary area was quantified using Image J Area analysis as described previously. For the expression analysis of Aβ transporters, the area of LRP1, RAGE and Mdr1-occupied endothelium were measured as an area percentage normalized by the total area of lectin-positive capillaries using Image J Area measurement tool. […]

The test system of assay [2] is miR-126. Put plainly: qPCR of capillary miR-126 after ghrelin administration. Format: in vivo, mouse. Particulars: 3×Tg-AD mice aged 9 months; ghrelin s.c. vs saline; P<0.05.
Excerpt: as §1
(§3) Total RNA was purified with Trizol reagent (Invitrogen), according to the manufacturer's instructions. To quantify miR-126-3p (MIMAT0000138), miR-145-5p (MIMAT0000157), miR-195-5p (MIMAT0000225), miR-21-5p (MIMAT0000530) and miR-29b-3p (MIMAT0000127), reverse transcription and quantitative PCR (qPCR) were performed using the TaqMan@ microRNA assay kit (Applied Biosystems) as previously described. […] Relative gene expression levels between wild type and 3×Tg-AD mice were determined using the comparative Ct (2^−ΔΔCt) method after normalizing to U6.
A general note: Quantitative PCR measures a nucleic acid by following its amplification.

In assay [3] the test system is miR-145. Put plainly: qPCR of capillary miR-145 after ghrelin administration. Particulars: 3×Tg-AD mice aged 9 months; ghrelin s.c. vs saline; P<0.05. Type of assay: in vivo, mouse.
Excerpt: as §1, §3

The test system of assay [4] is 5 capillary miRNAs (miR-126, miR-145, miR-195, miR-21, miR-29b). Put plainly: qPCR of 5 capillary miRNAs after ghrelin administration. Format: in vivo, mouse. Particulars: 9 months 3×Tg mice; ghrelin 600 μg/kg per day, every 2 days for 2 weeks S.C. vs saline.
Excerpt: as §1
Total RNA was purified with Trizol reagent (Invitrogen), according to the manufacturer's instructions. To quantify miR-126-3p (MIMAT0000138), miR-145-5p (MIMAT0000157), miR-195-5p (MIMAT0000225), miR-21-5p (MIMAT0000530) and miR-29b-3p (MIMAT0000127), reverse transcription and quantitative PCR (qPCR) were performed using the TaqMan@ microRNA assay kit (Applied Biosystems) as previously described. […] Relative gene expression levels between wild type and 3×Tg-AD mice were determined using the comparative Ct (2^−ΔΔCt) method after normalizing to U6. […]

For assay [5], the system named is Aβ oligomers. Kind of assay: Aβ oligomers (ELISA, immunoblot) in microvessel-depleted cortex and hippocampus after ghrelin. Type of assay: in vivo, mouse.
Excerpt: as §1, with “vendor. Ten mice per strain (3×Tg-AD, B6129SF2/J) at the ages of 6, 9, and 12 months were used in this study.” for “vendor.”
The method has been described previously. […] After centrifugation at 12,000 rpm for 20 min, protein content was determined by Bradford assay. […]
Human Aβ oligomers were analyzed in the microvessel-depleted cortex and hippocampal supernatant by enzyme-linked immunosorbent assay (ELISA; IBL International, Germany) according to manufacturer's instructions. […]
On the technique in general: An ELISA detects its analyte on a solid surface through an enzyme-linked reagent.

Assay [6] concerns RAGE. Put plainly: Expression of Aβ transporters in isolated capillaries after ghrelin (immunofluorescence). Particulars: 3×Tg-AD mice aged 9 months; ghrelin vs saline-injected group. Format: in vivo, mouse.
Excerpt: as §1, §2

For assay [7], the system named is Aβ plaque. Particulars: 5×FAD mice with ghrelin treatment; cited from earlier work.

With “n-octanoylated ghrelin (GSS(Octanoyl)FLSPEHQRVQQRKESKKPPAKLQPR; UniProt Q9UBU3 24-51, looked up) [neuropeptide "hunger hormone" generated from ghrelinergic cells of the gastrointestinal tract; n-octanoylated ghrelin from AnaSpec]”, the “percentage of pericyte coverage” value in assay [1] was “increased significantly”. Besides, the “expression level of capillary miR126 from hippocampus and cerebral cortex” value in assay [2] is given as “significant increase”. Besides, in assay [3], the “expression level of capillary miR-145 from hippocampus and cerebral cortex” value is on record as “significant increase”. Also, the “expression levels of all 5 capillary miRNAs in hippocampus and cerebral cortex” value in assay [4] was “significant increase”. Also, in assay [5] (3×Tg-AD mice aged 9 months, ghrelin vs vehicle, ELISA and immunoblot, vessels-depleted hippocampus and cortex, P<0.05), the “level of Aβ oligomers” value is reported as “significantly lower level”. The “Aβ levels (both APP and Aβ oligomers)” value in assay [5] (9 months 3×Tg mice, ghrelin 600 μg/kg per day, every 2 days for 2 weeks S.C. vs saline, 6E10 and A11 antibodies) is on record as “significantly lower”. Further, the “decline of relative expression of RAGE in isolated capillaries” value in assay [6] is given as approximately 10%. In addition, the Aβ plaque burden result in assay [7] is reported as “no significant diminishment”.

The record behind these values is US20200071699A1, “TREATMENT OF ALZHEIMERS DISEASE WITH MICRO RNA AND GHRELIN” (priority 2018, published 2020).
